The subject of one experiment is HBV. Nature of the experiment: Determination of HBV DNA from the supernatants of HepAD38 cells (anti-HBV activity). Format: cell-based, hepatitis B virus. The note with it: Hepatitis B virus, 144 h; HBV DNA in HepAD38 supernatant at day 6; read-out: Cell Activity (EC50). In outline: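 EC50 values were obtained by non-linear regression of HBV DNA copy numbers measured by qPCR against pCH-9/3091 plasmid standards. The DNA came from filtered supernatants collected on day 6. Before that, tetracycline-withdrawn HepAD38 cells had been exposed to serial half-log compound dilutions, with tetracycline-treated cells as the non-producing control.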

For the next experiment, the target named is HBV core protein (UniProt P03146). Format: biochemical. The note with it: read-out: Assembly Activity (IC50); BODIPY-FL labelled core protein, assembly started with NaCl, read after 6 min. The essentials:
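Compounds tested at 8 concentrations in 0.5-log steps from 100, 31.6 or 10 μM against 1.0–2.0 μM BODIPY-FL-labelled Cys150 core dimers (residues 1–149), 50 mM HEPES pH 7.5. NaCl ([…] final) triggered assembly; quenching read at 6 min, 477/525 nm, with 2.5 M and 0 M NaCl as controls; EC50 by nonlinear fit.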

Molecules are shown by their SMILES.

Sequence of HBV core protein (P03146 whole entry, looked up, the tested form may be a part): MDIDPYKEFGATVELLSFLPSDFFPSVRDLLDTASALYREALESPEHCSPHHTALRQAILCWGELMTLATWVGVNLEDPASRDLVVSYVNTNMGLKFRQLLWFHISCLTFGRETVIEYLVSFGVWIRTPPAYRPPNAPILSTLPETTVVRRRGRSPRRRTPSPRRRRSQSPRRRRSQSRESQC

In the case of `Cc1c(Cl)ccc2cc(C(=O)N3CCc4nc(N)sc4C3)[nH]c12` [Example 134, 5-(6-chloro-7-methyl-1H-indole-2-carbonyl)-4H,5H,6H,7H-[1,3]thiazolo[5,4-c]pyridin-2-amine], in the experiment on HBV, the EC50 was under 1000 nM. For the same compound, on HBV core protein, the IC50 is under 5 µM.
The corresponding values for `O=C(c1cc2c(CO)cccc2[nH]1)N1CCc2nc(NCC3CCOC3)sc2C1` (centres unmarked) [Example 245, [2-(2-{[(oxolan-3-yl)methyl]amino}-4H,5H,6H,7H-[1,3]thiazolo[5,4-c]pyridine-5-carbonyl)-1H-indol-4-yl]methanol] are under 1000 nM and under 100 µM.
As for `CC(Nc1nc2c(s1)CN(C(=O)c1cc3ccccc3[nH]1)CC2)C(F)(F)F` (centres unmarked) [Example 22, 5-(1H-indole-2-carbonyl)-N-(1,1,1-trifluoropropan-2-yl)-4H,5H,6H,7H-[1,3]thiazolo[5,4-c]pyridin-2-amine], in the experiment with HBV, the EC50 is under 1000 nM. The IC50 on HBV core protein was under 100 µM.
Regarding `CCc1cccc2[nH]c(C(=O)N3CCc4nc(NC5(CO)CCC5)sc4C3)cc12` [Example 300, (1-{[5-(4-ethyl-1H-indole-2-carbonyl)-4H,5H,6H,7H-[1,3]thiazolo[5,4-c]pyridin-2-yl]amino}cyclobutyl)methanol], the EC50 in the experiment on HBV was under 1000 nM. Further, the IC50 at HBV core protein is under 5 µM.
Consider `COC(=O)[C@@H]1C[C@H](Nc2nc3c(s2)CN(C(=O)c2cc4ccccc4[nH]2)CC3)CN1` [Example 289, Methyl (2S,4S)-4-{[5-(1H-indole-2-carbonyl)-4H,5H,6H,7H-[1,3]thiazolo[5,4-c]pyridin-2-yl]amino}pyrrolidine-2-carboxylate], for which the EC50 in the experiment on HBV is under 100000 nM. Moreover, the IC50 on HBV core protein is under 5 µM.
Regarding `CC(F)(F)c1cccc2[nH]c(C(=O)N3CCc4nc(NCC5(O)CCC5)sc4C3)cc12` [Example 372, 1-[({5-[4-(1,1-difluoroethyl)-1H-indole-2-carbonyl]-4H,5H,6H,7H-[1,3]thiazolo[5,4-c]pyridin-2-yl}amino)methyl]cyclobutan-1-ol], in the experiment with HBV, the EC50 was 1000 to 10000 nM. In addition, at HBV core protein, the IC50 was under 5 µM.
`O=C(c1cc2ccccc2[nH]1)N1CCc2nc(NC3CC(CO)(CO)C3)sc2C1` [Example 42, [1-(hydroxymethyl)-3-{[5-(1H-indole-2-carbonyl)-4H,5H,6H,7H-[1,3]thiazolo[5,4-c]pyridin-2-yl]amino}cyclobutyl]methanol]: in the experiment on HBV, the EC50 is under 1000 nM. Further, the IC50 at HBV core protein is under 5 µM.
In the case of `O=C(c1cc2c(C(F)F)ccc(F)c2[nH]1)N1CCc2nc(NCC3CCOC3)sc2C1` (centres unmarked) [Example 322, 5-[4-(difluoromethyl)-7-fluoro-1H-indole-2-carbonyl]-N-[(oxolan-3-yl)methyl]-4H,5H,6H,7H-[1,3]thiazolo[5,4-c]pyridin-2-amine], the concentration for a half-maximal effect (EC50) in the experiment with HBV was under 1000 nM. Moreover, the IC50 at HBV core protein is under 5 µM.
The corresponding values for `O=C(Nc1nc2c(s1)CN(C(=O)c1cc3c(C(F)F)cc(F)cc3[nH]1)CC2)C1CCOCC1` [Example 402, N-{5-[4-(difluoromethyl)-6-fluoro-1H-indole-2-carbonyl]-4H,5H,6H,7H-[1,3]thiazolo[5,4-c]pyridin-2-yl}oxane-4-carboxamide] are under 1000 nM and under 5 µM.
On the same counts, the results for `O=C(c1cc2ccccc2[nH]1)N1CCc2nc(N[C@H]3CC[C@@H](O)CC3)sc2C1` [Example 45, (1s,4s)-4-{[5-(1H-indole-2-carbonyl)-4H,5H,6H,7H-[1,3]thiazolo[5,4-c]pyridin-2-yl]amino}cyclohexan-1-ol] are under 1000 nM and under 5 µM.
In the case of `O=C(c1cc2ccccc2[nH]1)N1CCc2nc(NC[C@@H]3COC[C@@H]3O)sc2C1` [Example 241, (3R,4R)-4-({[5-(1H-indole-2-carbonyl)-4H,5H,6H,7H-[1,3]thiazolo[5,4-c]pyridin-2-yl]amino}methyl)oxolan-3-ol], in the experiment on HBV, the EC50 was under 1000 nM. Moreover, the IC50 at HBV core protein is under 5 µM.
With `O=C(c1cc2c(Cl)cccc2[nH]1)N1CCc2nc(NCC3(CO)CC3)sc2C1` [Example 63, [1-({[5-(4-chloro-1H-indole-2-carbonyl)-4H,5H,6H,7H-[1,3]thiazolo[5,4-c]pyridin-2-yl]amino}methyl)cyclopropyl]methanol], in the experiment on HBV, the EC50 is under 1000 nM. The IC50 on HBV core protein is under 5 µM.
`O=C(c1cc2ccc(Cl)cc2[nH]1)N1CCc2nc(N[C@H]3CC[C@@H](O)CC3)sc2C1` [Example 301, (1s,4s)-4-{[5-(6-chloro-1H-indole-2-carbonyl)-4H,5H,6H,7H-[1,3]thiazolo[5,4-c]pyridin-2-yl]amino}cyclohexan-1-ol]: the EC50 with HBV is under 1000 nM. Further, at HBV core protein, the IC50 is under 5 µM.
On the same counts, the results for `C=Cc1cccc2[nH]c(C(=O)N3CCc4nc(N)sc4C3)cc12` [Example 13, 5-(4-ethenyl-1H-indole-2-carbonyl)-4H,5H,6H,7H-[1,3]thiazolo[5,4-c]pyridin-2-amine] are 1000 to 10000 nM and 5 to 10 µM.
On the same counts, the results for `O=C(Nc1nc2c(s1)CN(C(=O)c1cc3c(Cl)cc(F)cc3[nH]1)CC2)C1CCOCC1` [Example 320, N-[5-(4-chloro-6-fluoro-1H-indole-2-carbonyl)-4H,5H,6H,7H-[1,3]thiazolo[5,4-c]pyridin-2-yl]oxane-4-carboxamide] are under 1000 nM and 5 to 10 µM.
The corresponding values for `CS(=O)(=O)NC(=O)Nc1nc2c(s1)CN(C(=O)c1cc3ccccc3[nH]1)CC2` [Example 393, 1-[5-(1H-indole-2-carbonyl)-4H,5H,6H,7H-[1,3]thiazolo[5,4-c]pyridin-2-yl]-3-methanesulfonylurea] are 1000 to 10000 nM and 5 to 10 µM.
For the compound `CC(=O)NNc1nc2c(s1)CN(C(=O)c1cc3ccccc3[nH]1)CC2` [Example 58, N′-[5-(1H-indole-2-carbonyl)-4H,5H,6H,7H-[1,3]thiazolo[5,4-c]pyridin-2-yl]acetohydrazide], the EC50 in the experiment with HBV was 1000 to 10000 nM. Further, the IC50 on HBV core protein lay in the range of 5 to 10 µM.
For `Nc1nc2c(s1)CN(C(=O)c1cc3ccc(Cl)c(F)c3[nH]1)CC2` [Example 407, 5-(6-chloro-7-fluoro-1H-indole-2-carbonyl)-4H,5H,6H,7H-[1,3]thiazolo[5,4-c]pyridin-2-amine], the EC50 in the experiment on HBV was under 1000 nM. For the same compound, the IC50 on HBV core protein was under 5 µM.
The corresponding values for `CC(=O)N1CCC(CNc2nc3c(s2)CN(C(=O)c2cc4ccccc4[nH]2)CC3)C1` (centres unmarked) [Example 391, 1-[3-({[5-(1H-indole-2-carbonyl)-4H,5H,6H,7H-[1,3]thiazolo[5,4-c]pyridin-2-yl]amino}methyl)pyrrolidin-1-yl]ethan-1-one] are under 1000 nM and under 5 µM.
As for `Cc1cc(F)cc2[nH]c(C(=O)N3CCc4nc(NCC5CCOC5)sc4C3)cc12` (centres unmarked) [Example 120, 5-(6-fluoro-4-methyl-1H-indole-2-carbonyl)-N-[(oxolan-3-yl)methyl]-4H,5H,6H,7H-[1,3]thiazolo[5,4-c]pyridin-2-amine], in the experiment with HBV, the EC50 is under 1000 nM. For the same compound, the IC50 on HBV core protein is under 5 µM.
On the same counts, the results for `O=C(c1cc2ccccc2[nH]1)N1CCc2nc(NC[C@H]3C[C@@H]4CC[C@H]3O4)sc2C1` (racemic) [Example 34, (+/−)-cis-5-(1H-indole-2-carbonyl)-N-{1[(1R,2R,4S)-7-oxabicyclo[2.2.1]heptan-2-yl]methyl}-4H,5H,6H,7H-[1,3]thiazolo[5,4-c]pyridin-2-amine] are under 1000 nM and under 5 µM.
On the same counts, the results for `O=C(c1cc2c(F)cc(F)cc2[nH]1)N1CCc2nc(NCCO)sc2C1` [Example 111, 2-{[5-(4,6-difluoro-1H-indole-2-carbonyl)-4H,5H,6H,7H-[1,3]thiazolo[5,4-c]pyridin-2-yl]amino}ethan-1-ol] are under 1000 nM and under 5 µM.
On the same counts, the results for `COC1COCCC1Nc1nc2c(s1)CN(C(=O)c1cc3ccccc3[nH]1)CC2` (centres unmarked) [Example 231, 5-(1H-indole-2-carbonyl)-N-(3-methoxyoxan-4-yl)-4H,5H,6H,7H-[1,3]thiazolo[5,4-c]pyridin-2-amine] are under 1000 nM and 5 to 10 µM.
Regarding `O=C(c1cc2ccccc2[nH]1)N1CCc2nc(NC3(c4c[nH]nn4)CC(F)(F)C3)sc2C1` [Example 430, N-[3,3-difluoro-1-(1H-1,2,3-triazol-4-yl)cyclobutyl]-5-(1H-indole-2-carbonyl)-4H,5H,6H,7H-[1,3]thiazolo[5,4-c]pyridin-2-amine], the EC50 in the experiment on HBV is under 1000 nM. For the same compound, at HBV core protein, the 50% inhibitory concentration (IC50) was under 5 µM.
As to `Cc1ccc(F)c2[nH]c(C(=O)N3CCc4nc(NCC5CCOC5)sc4C3)cc12` (centres unmarked) [Example 114, 5-(7-fluoro-4-methyl-1H-indole-2-carbonyl)-N-[(oxolan-3-yl)methyl]-4H,5H,6H,7H-[1,3]thiazolo[5,4-c]pyridin-2-amine], the EC50 in the experiment with HBV was under 1000 nM. The IC50 on HBV core protein is 5 to 10 µM.
The corresponding values for `O=C(c1cc2ccccc2[nH]1)N1CCc2nc(NCC3COCCO3)sc2C1` (centres unmarked) [Example 66, N-[(1,4-dioxan-2-yl)methyl]-5-(1H-indole-2-carbonyl)-4H,5H,6H,7H-[1,3]thiazolo[5,4-c]pyridin-2-amine] are under 1000 nM and under 5 µM.
On the same counts, the results for `CCc1cccc2[nH]c(C(=O)N3CCc4nc(N)sc4C3)cc12` [Example 81, 5-(4-ethyl-1H-indole-2-carbonyl)-4H,5H,6H,7H-[1,3]thiazolo[5,4-c]pyridin-2-amine] are under 1000 nM and under 5 µM.
In the case of `O=C(c1cc2ccccc2[nH]1)N1CCc2nc(NCC(F)(F)CO)sc2C1` [Example 225, 2,2-difluoro-3-{[5-(1H-indole-2-carbonyl)-4H,5H,6H,7H-[1,3]thiazolo[5,4-c]pyridin-2-yl]amino}propan-1-ol], the EC50 with HBV is under 1000 nM. In addition, the half-maximal inhibitory concentration (IC50) on HBV core protein is under 5 µM.

These data come from patent publication US11267825B2 (AICURIS GMBH & CO. KG, priority 2017, dated 2022).
